Values quoted from earlier work, collected in patent publication US20120178114A1, “METHODS AND DEVICES FOR DETECTING THROMBIN GENERATION” (SUBC, INC., priority 2007, published 2012).

Target: thrombin (Homo sapiens, UniProt P00734)
Conditions: BAEE as thrombin substrate

Km: 100 µM
kcat: 50 s⁻¹
SMILES: CCOC(=O)[C@H](CCCNC(=N)N)NC(=O)c1ccccc1 [BAEE, benzoylarginine ethyl ester]
